# Target: T1, PARP-1 (Homo sapiens, UniProt P09874)
# T1 construct: gene PARP1
# Experiment: PARP-1 colorimetric assay kit (BPS Bioscience […])
# Assay type: biochemical
# T1 sequence (P09874 2-1014): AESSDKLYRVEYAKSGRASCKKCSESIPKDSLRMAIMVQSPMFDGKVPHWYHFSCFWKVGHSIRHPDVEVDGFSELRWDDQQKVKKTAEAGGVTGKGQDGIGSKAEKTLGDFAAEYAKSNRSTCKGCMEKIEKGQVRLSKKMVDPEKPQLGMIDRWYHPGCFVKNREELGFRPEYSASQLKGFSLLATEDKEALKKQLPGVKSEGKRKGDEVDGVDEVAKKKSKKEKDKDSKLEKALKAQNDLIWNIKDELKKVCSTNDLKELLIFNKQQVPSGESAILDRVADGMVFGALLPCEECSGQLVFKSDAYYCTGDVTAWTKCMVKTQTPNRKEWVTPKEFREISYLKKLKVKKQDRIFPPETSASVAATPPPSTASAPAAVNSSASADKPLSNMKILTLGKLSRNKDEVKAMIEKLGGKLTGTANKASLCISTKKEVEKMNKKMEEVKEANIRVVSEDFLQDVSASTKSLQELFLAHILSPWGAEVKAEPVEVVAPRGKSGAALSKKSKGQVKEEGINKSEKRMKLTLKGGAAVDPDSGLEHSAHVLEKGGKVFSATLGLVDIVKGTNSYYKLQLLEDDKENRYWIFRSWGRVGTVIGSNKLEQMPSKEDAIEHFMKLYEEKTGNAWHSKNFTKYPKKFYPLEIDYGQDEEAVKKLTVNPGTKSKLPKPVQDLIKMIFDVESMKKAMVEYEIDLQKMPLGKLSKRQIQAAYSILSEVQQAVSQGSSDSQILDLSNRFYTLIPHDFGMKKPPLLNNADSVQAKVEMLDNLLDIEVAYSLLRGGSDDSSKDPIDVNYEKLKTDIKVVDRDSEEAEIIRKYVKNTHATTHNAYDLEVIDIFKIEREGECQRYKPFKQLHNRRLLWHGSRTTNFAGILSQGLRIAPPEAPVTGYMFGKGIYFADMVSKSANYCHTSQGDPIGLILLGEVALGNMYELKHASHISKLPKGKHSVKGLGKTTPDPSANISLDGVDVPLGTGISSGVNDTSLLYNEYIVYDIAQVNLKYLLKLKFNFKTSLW
smiles,measurement,value
C/C=C(/C)C(=O)OC1=C(C(C)CCC=C(C)C)C(=O)C=C(C)C1=O (stereo not shown) [perezone angelate],IC50,5.25 µM
